In brackets after ≈: the same amount, converted by molar mass.
Key:
Format in all cases: cell-based
[1] = system: Candida albican ATCC 64550; test: In vitro antifungal activity (MIC80), Candida albican ATCC 64550; details: Candida, ATCC64550; Table 2, 64550; read-out: Minimal inhibitory concentration (MIC80)
Experimental: (§1) In vitro antifungal activities of the inventive antifungal compounds were evaluated using test strains including Candida albican (ATCC 90873, 204276, 62342, 64124, 64550, 96901, MYA-573, MYA-574, MYA-575, MYA-576, MYA-1003) and Aspergillus fumigatus (ATCC 16424). Test samples and positive control samples were prepared by dissolving the inventive compounds and comparative compounds, i.e., amphotericin B, fluconazole and itraconazole, in DMSO, respectively, and each successively diluted with medium to obtain test and positive control solutions having test compound concentrations of 0.125 μg/ml to a maximum concentration not generating turbidity. Minimal inhibitory concentration (MIC80) of each compound was determined as the lowest concentration of the test compounds required to reduce growth by 80% relative to a control strain not treated.
(§2) 1) Test strain: Candida albican ATCC 90873, 204276, 62342, 64124, 64550, 96901, MYA-573, MYA-574, MYA-575, MYA-576, MYA-1003, and Aspergillus fumigatus ATCC 16424 were commercially obtained from The American Type Culture Collection (ATCC) and subcultured in CHEMON Co. Ltd. (amphotericin B was commercially purchased from Sigma, and fluconazole and itraconazole were prepared according to methods described in British Patent No. 2,099,818; and U.S. Pat. No. 4,267,179, respectively).
(§3) 2) Medium and culture condition: Candida albican was cultured in Sabourad Dextrose Agar, YM Agar or Potato Dextrose Agar according to ATCC information at a temperature of 37° C., 35° C., 30° C. or 25° C. Aspergillus fumigatus was cultured in Malt Extract Agar or Potato Dextrose Agar at a temperature ranging from 24 to 27° C.
(§4) 3) Preparation of test samples: the inventive compounds and comparative compounds were each diluted with DMSO to obtain 1 to 2 ml of a test sample in a concentration of 100-folds of the determining maximum concentration (256 μg/ml).
(§5) The test samples were each successively diluted with RPMI 1640 to obtain test solutions having concentrations of […] in a 12×75 mm sterilized disposable culture tube. The final concentration of DMSO was adjusted to […] (v/v).
(§6) 5) Preparation of strain solution and inoculation
(§7) Candida albican strains were each subcultured in Sabourad Dextrose Agar, YM Agar or Potato Dextrose Agar medium at 35° C. for 2˜3 days. In the case of yeasts, a single colony was taken from prominent colonies and suspended in 0.85% sterile physiological saline solution and the turbidity of the suspension was adjusted to 80˜82% at 530 nm, and then diluted 50-fold with RPMI 1640 medium to 1.0×10^3˜5.0×10^3 CFU/ml. The turbidity of fungi was adjusted to 80˜82% and the suspension was diluted 50-fold to […]. Aspergillus fumigatus strains were subcultured in Malt Extract Agar for 7˜10 days, and a single colony was taken from prominent colonies and suspended in 0.85% sterile physiological saline solution and the suspension was adjusted to 0.108 at 530 nm, and then diluted 1000-fold with RPMI 1640 medium to 0.4×10^2˜5×10^4 CFU/ml. The turbidity of fungi was adjusted to 80˜82% and the suspension was diluted 50-fold to 0.4102˜0.5104 CFU/ml.
(§8) The strain solutions thus obtained were each seeded into a sterilized 96-well microplate, 0.1 ml of each test solution were added thereto, and […] of alamarblue was treated to each well (Biosource, #DAL1100). This procedure was repeated 2 times.
(§9) Minimal inhibitory concentration (MIC80) of each compound was determined as the lowest concentration of the test compounds required to reduce growth by 80% relative to a control strain not treated.

[2] = system: Candida albican ATCC MYA-573; test: In vitro antifungal activity (MIC80), Candida albican ATCC MYA-573; details: Candida; Table 2, MYA 573; read-out: Minimal inhibitory concentration (MIC80)
Experimental: as §1, §2, §3, §4, §5, §6, §7, §8, §9

[3] = system: Candida albican ATCC MYA-574; test: In vitro antifungal activity (MIC80), Candida albican ATCC MYA-574; details: Candida; Table 2, MYA 574; read-out: Minimal inhibitory concentration (MIC80)
Experimental: as §1, §2, §3, §4, §5, §6, §7, §8, §9

[4] = system: Candida albican ATCC 96901; test: In vitro antifungal activity (MIC80), Candida albican ATCC 96901; details: Candida, ATCC96901; Table 2, ATCC 96901; read-out: Minimal inhibitory concentration (MIC80)
Experimental: as §1, §2, §3, §4, §5, §6, §7, §8, §9

[5] = system: Candida albican ATCC MYA-1003; test: In vitro antifungal activity (MIC80), Candida albican ATCC MYA-1003; details: Candida; Table 2, MYA 1003; read-out: Minimal inhibitory concentration (MIC80)
Experimental: as §1, §2, §3, §4, §5, §6, §7, §8, §9

[6] = system: Candida albican ATCC MYA-576; test: In vitro antifungal activity (MIC80), Candida albican ATCC MYA-576; details: Candida; Table 2, MYA 576; read-out: Minimal inhibitory concentration (MIC80)
Experimental: as §1, §2, §3, §4, §5, §6, §7, §8, §9

[7] = system: Candida albican ATCC 64124; test: In vitro antifungal activity (MIC80), Candida albican ATCC 64124; details: Candida, ATCC64124; Table 2, 64124; read-out: Minimal inhibitory concentration (MIC80)
Experimental: as §1, §2, §3, §4, §5, §6, §7, §8, §9

[8] = system: Candida albican ATCC 90873; test: In vitro antifungal activity (MIC80), Candida albican ATCC 90873; details: Candida, ATCC90873; Table 2, ATCC 90873; read-out: Minimal inhibitory concentration (MIC80)
Experimental: as §1, §2, §3, §4, §5, §6, §7, §8, §9

[9] = system: Candida albican ATCC MYA-575; test: In vitro antifungal activity (MIC80), Candida albican ATCC MYA-575; details: Candida; Table 2, MYA 575; read-out: Minimal inhibitory concentration (MIC80)
Experimental: as §1, §2, §3, §4, §5, §6, §7, §8, §9

[10] = system: Candida albican ATCC 62342; test: In vitro antifungal activity (MIC80), Candida albican ATCC 62342; details: Candida, ATCC62342; Table 2, 62342; read-out: Minimal inhibitory concentration (MIC80)
Experimental: as §1, §2, §3, §4, §5, §6, §7, §8, §9

Structure (SMILES)	MIC80 [1] [µg/mL]	MIC80 [2] [µg/mL]	MIC80 [3] [µg/mL]	MIC80 [4] [µg/mL]	MIC80 [5] [µg/mL]	MIC80 [6] [µg/mL]	MIC80 [7] [µg/mL]	MIC80 [8] [µg/mL]	MIC80 [9] [µg/mL]	MIC80 [10] [µg/mL]
C[C@@H](N1CCN(c2nc3ccc(N(C)CCN4CCOCC4)cc3s2)CC1)[C@](O)(Cn1cncn1)c1ccc(F)cc1F [Example 13, (2R,3R)-3-(4-(6-(N-methyl-N-(2-morpholinoethyl)amino)benzothiazol-2-yl)piperazin-1-yl)-2-(2,4-difluorophenyl)-1-(1H-1,2,4-triazol-1-yl)butan-2-ol]	0.5 (≈ 0.816 µM)	0.25 (≈ 0.408 µM)	16 (≈ 26.1 µM)	8 (≈ 13.1 µM)	32 (≈ 52.2 µM)	0.125 (≈ 0.204 µM)	2 (≈ 3.26 µM)	0.125 (≈ 0.204 µM)	0.125 (≈ 0.204 µM)	0.25 (≈ 0.408 µM)
C[C@@H](N1CCN(c2cccc(OCc3ccccc3)n2)CC1)[C@](O)(Cn1cncn1)c1ccc(F)cc1F [Example 20, (2R,3R)-3-(4-(6-(benzyloxy)pyridin-2-yl)piperazin-1-yl)-2-(2,4-difluorophenyl)-1-(1H-1,2,4-triazol-1-yl)butan-2-ol]	1 (≈ 1.92 µM)	0.5 (≈ 0.96 µM)	1 (≈ 1.92 µM)	2 (≈ 3.84 µM)	> 128	0.25 (≈ 0.48 µM)	8 (≈ 15.4 µM)	0.125 (≈ 0.24 µM)	0.25 (≈ 0.48 µM)	1 (≈ 1.92 µM)
C[C@@H](N1CCN(c2ccc(OC3CCCC3)nc2)CC1)[C@](O)(Cn1cncn1)c1ccc(F)cc1F [Example 31, (2R,3R)-3-(4-(6-(cyclopentyloxy)pyridin-3-yl)piperazin-1-yl)-2-(2,4-difluorophenyl)-1-(1H-1,2,4-triazol-1-yl)butan-2-ol]	1 (≈ 2.01 µM)	2 (≈ 4.01 µM)	4 (≈ 8.02 µM)	4 (≈ 8.02 µM)	> 128	0.25 (≈ 0.501 µM)	64 (≈ 128 µM)	0.125 (≈ 0.251 µM)	0.25 (≈ 0.501 µM)	1 (≈ 2.01 µM)
C[C@@H](N1CCN(c2cccc(OCc3cccs3)n2)CC1)[C@](O)(Cn1cncn1)c1ccc(F)cc1F [Example 25, (2R,3R)-2-(2,4-difluorophenyl)-3-(4-(6-(thiophen-2-ylmethoxy)pyridin-2-yl)piperazin-1-yl)-1-(1H-1,2,4-triazol-1-yl)butan-2-ol]	> 128	2 (≈ 3.8 µM)	> 128	> 128	> 128	0.5 (≈ 0.949 µM)	> 128	0.25 (≈ 0.475 µM)	1 (≈ 1.9 µM)	> 128
C[C@@H](N1CCN(c2cccc(N(C)CCCN3CCOCC3)n2)CC1)[C@](O)(Cn1cncn1)c1ccc(F)cc1F [Example 27, (2R,3R)-2-(2,4-difluorophenyl)-3-(4-(6-(methyl(3-morpholinopropyl)amino)pyridin-2-yl)piperazin-1-yl)-1-(1H-1,2,4-triazol-1-yl)butan-2-ol]	4 (≈ 7.01 µM)	4 (≈ 7.01 µM)	8 (≈ 14 µM)	16 (≈ 28 µM)	64 (≈ 112 µM)	0.5 (≈ 0.876 µM)	32 (≈ 56.1 µM)	0.25 (≈ 0.438 µM)	1 (≈ 1.75 µM)	2 (≈ 3.5 µM)
C[C@@H](N1CCN(c2ccc(OCCN3CCOCC3)nc2)CC1)[C@](O)(Cn1cncn1)c1ccc(F)cc1F [Example 34, (2R,3R)-2-(2,4-difluorophenyl)-3-(4-(6-(2-morpholinoethoxy)pyridin-3-yl)piperazin-1-yl)-1-(1H-1,2,4-triazol-1-yl)butan-2-ol]	2 (≈ 3.68 µM)	2 (≈ 3.68 µM)	2 (≈ 3.68 µM)	32 (≈ 58.9 µM)	128 (≈ 235 µM)	0.125 (≈ 0.23 µM)	32 (≈ 58.9 µM)	0.125 (≈ 0.23 µM)	0.125 (≈ 0.23 µM)	0.5 (≈ 0.92 µM)
C[C@@H](N1CCN(c2ccc(OCc3cccs3)nc2)CC1)[C@](O)(Cn1cncn1)c1ccc(F)cc1F [Example 35, (2R,3R)-2-(2,4-difluorophenyl)-3-(4-(6-(thiophen-2-ylmethoxy)pyridin-3-yl)piperazin-1-yl)-1-(1H-1,2,4-triazol-1-yl)butan-2-ol]	1 (≈ 1.9 µM)	0.5 (≈ 0.949 µM)	1 (≈ 1.9 µM)	> 128	> 128	0.125 (≈ 0.237 µM)	8 (≈ 15.2 µM)	0.125 (≈ 0.237 µM)	0.125 (≈ 0.237 µM)	0.5 (≈ 0.949 µM)

Continued, values first:

MIC80 [1] [µg/mL]	MIC80 [2] [µg/mL]	MIC80 [3] [µg/mL]	MIC80 [4] [µg/mL]	MIC80 [5] [µg/mL]	MIC80 [6] [µg/mL]	MIC80 [7] [µg/mL]	MIC80 [8] [µg/mL]	MIC80 [9] [µg/mL]	MIC80 [10] [µg/mL]	Structure (SMILES)
2 (≈ 4.23 µM)	4 (≈ 8.46 µM)	8 (≈ 16.9 µM)	> 128	> 128	0.25 (≈ 0.529 µM)	> 128	0.125 (≈ 0.265 µM)	0.5 (≈ 1.06 µM)	8 (≈ 16.9 µM)	CC(C)Oc1cccc(N2CCN([C@H](C)[C@](O)(Cn3cncn3)c3ccc(F)cc3F)CC2)n1 [Example 24, (2R,3R)-2-(2,4-difluorophenyl)-3-(4-(6-(isopropyloxy)pyridin-2-yl)piperazin-1-yl)-1-(1H-1,2,4-triazol-1-yl)butan-2-ol]
4 (≈ 7.22 µM)	1 (≈ 1.81 µM)	2 (≈ 3.61 µM)	> 128	> 128	0.5 (≈ 0.903 µM)	32 (≈ 57.8 µM)	0.125 (≈ 0.226 µM)	0.5 (≈ 0.903 µM)	1 (≈ 1.81 µM)	CC(N1CCN(c2ccc(N(C)CCc3cccs3)nc2)CC1)C(O)(Cn1cncn1)c1ccc(F)cc1F (centres unmarked) [Example 37]
64 (≈ 128 µM)	32 (≈ 64.2 µM)	> 128	> 128	> 128	0.5 (≈ 1 µM)	> 128	0.5 (≈ 1 µM)	0.5 (≈ 1 µM)	128 (≈ 257 µM)	C[C@@H](N1CCN(c2cccc(OC3CCCC3)n2)CC1)[C@](O)(Cn1cncn1)c1ccc(F)cc1F [Example 22, (2R,3R)-3-(4-(6-(cyclopentyloxy)pyridin-2-yl)piperazin-1-yl)-2-(2,4-difluorophenyl)-1-(1H-1,2,4-triazol-1-yl)butan-2-ol]
4 (≈ 9.34 µM)	1 (≈ 2.33 µM)	4 (≈ 9.34 µM)	64 (≈ 149 µM)	128 (≈ 299 µM)	0.125 (≈ 0.292 µM)	64 (≈ 149 µM)	0.125 (≈ 0.292 µM)	0.5 (≈ 1.17 µM)	0.5 (≈ 1.17 µM)	C[C@@H](N1CCN(Cc2ccncc2)CC1)[C@](O)(Cn1cncn1)c1ccc(F)cc1F [Example 42, (2R,3R)-2-(2,4-difluorophenyl)-3-(4-((pyridin-4-yl)methyl)piperazin-1-yl)-1-(1H-1,2,4-triazol-1-yl)butan-2-ol]

Source: patent US20100144712A1 (priority 2007, published 2010)
